Laboratory results as given in PubChem BioAssay (NCI).
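Step 1: Grow cells in 96-well plates. Step 2: Expose to compound for 48 hours at 5 concentrations. Step 3: Interpolate endpoints linearly; if unreached, use highest concentration. GI50: concentration for 50% inhibition of growth. TGI: concentration producing complete growth inhibition.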

Legend:
Experiment in all cases: inhibition of tumour cell growth, NCI panel, 48 h
HCT-116 colon = test system: HCT-116 colon
MOLT-4 leukemia = test system: MOLT-4 leukemia
M14 melanoma = test system: M14 melanoma
NCI-H226 lung = test system: NCI-H226 lung
SK-MEL-5 melanoma = test system: SK-MEL-5 melanoma
ACHN renal = test system: ACHN renal
HOP-92 NSCLC = test system: HOP-92 NSCLC
HL-60(TB) leukemia = test system: HL-60(TB) leukemia
MDA-MB-231 breast = test system: MDA-MB-231 breast
SF-539 CNS = test system: SF-539 CNS

SMILES | TGI (HCT-116 colon) | TGI (MOLT-4 leukemia) | TGI (M14 melanoma) | TGI (NCI-H226 lung) | TGI (SK-MEL-5 melanoma) | TGI (ACHN renal) | TGI (HOP-92 NSCLC) | TGI (HL-60(TB) leukemia) | TGI (MDA-MB-231 breast) | TGI (SF-539 CNS) | GI50 (HCT-116 colon) | GI50 (MOLT-4 leukemia) | GI50 (M14 melanoma) | GI50 (NCI-H226 lung) | GI50 (SK-MEL-5 melanoma) | GI50 (ACHN renal) | GI50 (HOP-92 NSCLC) | GI50 (HL-60(TB) leukemia) | GI50 (MDA-MB-231 breast) | GI50 (SF-539 CNS)
O=C1C2=C(Nc3cc([N+](=O)[O-])ccc3N2)OC1c1c[nH]c2ccc(COc3ccccc3)cc12 (centres undefined) | > 100 µM | 40.4 µM | > 100 µM | > 100 µM | > 100 µM | > 100 µM | > 100 µM | 17.7 µM | > 100 µM | > 100 µM | – | – | – | – | – | – | – | – | – | –
CCN(CC)CCC(CNc1c2ccc(Cl)cc2nc2ccc(OC)cc12)c1ccccc1 (centres undefined) | 3.52 µM | 5 µM | 3.44 µM | 4.99 µM | 3.11 µM | 3.19 µM | 3.86 µM | 4.71 µM | 2.73 µM | 3.16 µM | 0.729 µM | 0.486 µM | 1.78 µM | 1.43 µM | 1.7 µM | 1.05 µM | 1.79 µM | 1.87 µM | 1.01 µM | 1.49 µM
CN1CCN(Cc2ccc(NC(=O)c3cncc(C#Cc4c(N)ncc5ccc(F)cc45)c3)cc2C(F)(F)F)CC1 | 1.37 µM | 3.03 µM | 0.857 µM | 1.75 µM | 1.36 µM | 1.27 µM | 0.322 µM | 1.98 µM | 1.15 µM | 2.65 µM | 0.211 µM | 0.234 µM | 0.194 µM | 0.4 µM | 0.69 µM | 0.562 µM | 0.0285 µM | 0.0758 µM | 0.24 µM | 0.628 µM
CC1SC(c2cccc(Oc3ccccc3)c2)N(CCc2cccs2)C1=O (centres undefined) | 1.76 µM | 4.97 µM | 2.34 µM | 2.94 µM | 1.87 µM | 4.97 µM | 1.86 µM | 6.56 µM | 2.58 µM | 3.11 µM | 0.457 µM | 0.77 µM | 1.02 µM | 1.28 µM | 0.607 µM | 1.14 µM | 0.486 µM | 1.17 µM | 1.09 µM | 1.5 µM
Cc1nc2cc(NC(=O)CN3CCN(CCN4C(=O)c5cccc6cccc(c56)C4=O)CC3)ccc2s1 | 14.7 µM | 22.2 µM | 23 µM | 73.9 µM | 10.9 µM | 25 µM | 9.05 µM | 26.3 µM | > 100 µM | > 100 µM | 2.94 µM | 2.52 µM | 8.76 µM | 4.67 µM | 2.73 µM | 3.5 µM | 2.13 µM | 6.36 µM | 11.7 µM | 7.59 µM
Nc1nc(N)c2nn(-c3ccc(C(=O)O)cc3)nc2n1 | > 100 µM | > 100 µM | > 100 µM | > 100 µM | > 100 µM | > 100 µM | > 100 µM | > 100 µM | > 100 µM | > 100 µM | – | – | – | – | – | – | – | – | – | –
C=CC(=O)N1CC[C@@H](Oc2nc(Nc3ccc(N4CCC(N5CCN(C)CC5)CC4)cc3)c(C(N)=O)nc2CC)C1 | > 100 µM | > 100 µM | > 100 µM | > 100 µM | > 100 µM | > 100 µM | > 100 µM | > 100 µM | > 100 µM | > 100 µM | > 100 µM | > 100 µM | > 100 µM | > 100 µM | > 100 µM | > 100 µM | > 100 µM | > 100 µM | > 100 µM | > 100 µM
COc1cc2c(cc1Nc1nc(Nc3ccsc3C(N)=O)c3cc[nH]c3n1)N(C(=O)CN(C)C)CCC2 | 3.79 µM | 9.6 µM | 3.28 µM | 7.18 µM | 3.2 µM | 6.06 µM | 1.19 µM | 1.09 µM | 4.63 µM | 4.16 µM | 0.458 µM | 1.23 µM | 0.592 µM | 1.12 µM | 0.383 µM | 2.67 µM | < 0.0025 µM | 0.00552 µM | 1.01 µM | 0.983 µM
COc1ccc(C2CC(c3cccc(Nc4ccnc5cc(Cl)ccc45)c3)=NN2c2ccc(Cl)cc2)cc1 (centres undefined) | 19.2 µM | 69.5 µM | 11 µM | 94.8 µM | 10.2 µM | 90.6 µM | 66.3 µM | 26.9 µM | 65.2 µM | 4.43 µM | 2.27 µM | 3.18 µM | 0.752 µM | 14.2 µM | 3.01 µM | 4.63 µM | 10.8 µM | 4.78 µM | 4.84 µM | 1.8 µM
N#Cc1ccccc1C#C/C=C\C#Cc1cnccn1 | > 100 µM | > 100 µM | 13.8 µM | > 83.1 µM | 45.4 µM | 98.7 µM | > 28.4 µM | > 24.1 µM | 44.1 µM | 46.2 µM | 12.5 µM | > 24.3 µM | 5.78 µM | 26.6 µM | 17 µM | 32.9 µM | – | 3.23 µM | 11.1 µM | 9.5 µM
